Laboratory results reported in US20250326753A1, “DUAL CXCR4-BTK INHIBITORS” (X4 Pharmaceuticals, Inc., priority 2022, published 2025).
Where two headings read alike, the source gives them in different places.

Experiments:
Assay type in all cases: biochemical
DDR2 = biological target: T1, DDR2 (Homo sapiens, UniProt Q16832); assay: PanQinase kinase panel: DDR2
T1 construct: purchased Reaction Biology Europe GmbH
T1 sequence (Q16832 22-855): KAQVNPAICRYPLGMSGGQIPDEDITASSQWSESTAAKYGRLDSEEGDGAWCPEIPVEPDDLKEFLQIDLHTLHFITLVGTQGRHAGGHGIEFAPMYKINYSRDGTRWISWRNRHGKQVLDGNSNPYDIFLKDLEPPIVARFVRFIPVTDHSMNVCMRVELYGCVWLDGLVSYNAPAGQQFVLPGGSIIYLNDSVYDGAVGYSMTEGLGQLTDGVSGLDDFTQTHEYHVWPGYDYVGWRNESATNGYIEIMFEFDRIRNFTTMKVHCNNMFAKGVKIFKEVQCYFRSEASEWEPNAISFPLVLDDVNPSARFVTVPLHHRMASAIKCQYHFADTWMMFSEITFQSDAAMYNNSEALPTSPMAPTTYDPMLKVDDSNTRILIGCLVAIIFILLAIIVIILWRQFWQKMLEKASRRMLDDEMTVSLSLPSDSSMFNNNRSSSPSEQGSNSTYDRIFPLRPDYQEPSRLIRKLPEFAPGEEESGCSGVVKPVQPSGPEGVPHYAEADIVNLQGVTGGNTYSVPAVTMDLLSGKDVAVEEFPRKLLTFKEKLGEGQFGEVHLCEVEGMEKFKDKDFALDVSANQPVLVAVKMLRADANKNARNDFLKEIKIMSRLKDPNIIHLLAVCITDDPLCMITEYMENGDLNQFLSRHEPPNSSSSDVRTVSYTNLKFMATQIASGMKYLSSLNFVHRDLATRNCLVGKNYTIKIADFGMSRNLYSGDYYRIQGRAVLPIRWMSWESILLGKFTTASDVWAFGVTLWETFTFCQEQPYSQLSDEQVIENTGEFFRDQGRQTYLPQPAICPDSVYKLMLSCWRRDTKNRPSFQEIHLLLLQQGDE
Description: (§1) Screening procedures were performed in accordance with the company's on-line protocol [accessed on-line Mar.
(§2) For each kinase, the median value of the cpm of three wells was defined as “low control” (n=3). This value reflects unspecific binding of radioactivity to the plate in the absence of a protein kinase but in the presence of the substrate. Additionally, for each kinase the median value of the cpm of three other wells was taken as the “high control,” i.e. full activity in the absence of any inhibitor (n=3). The difference between high and low control of each enzyme was taken as 100% activity.
(§3) As part of the data evaluation the low control of each kinase was subtracted from the high control value as well as from their corresponding “compound values”. The residual activity (in %) for each compound well was calculated by using the following formula: Res. Activity (%)=100×[(signal of compound−low control)/(high control−low control)].

TEC = biological target: T2, TEC (Homo sapiens, UniProt P42680); assay: PanQinase kinase panel: TEC; conditions: for inhibition at 1 µM: read-out: INHIBITORY EFFECT @ 1 uM: TEC
T2 construct: purchased Reaction Biology Europe GmbH
T2 sequence (P42680 1-631): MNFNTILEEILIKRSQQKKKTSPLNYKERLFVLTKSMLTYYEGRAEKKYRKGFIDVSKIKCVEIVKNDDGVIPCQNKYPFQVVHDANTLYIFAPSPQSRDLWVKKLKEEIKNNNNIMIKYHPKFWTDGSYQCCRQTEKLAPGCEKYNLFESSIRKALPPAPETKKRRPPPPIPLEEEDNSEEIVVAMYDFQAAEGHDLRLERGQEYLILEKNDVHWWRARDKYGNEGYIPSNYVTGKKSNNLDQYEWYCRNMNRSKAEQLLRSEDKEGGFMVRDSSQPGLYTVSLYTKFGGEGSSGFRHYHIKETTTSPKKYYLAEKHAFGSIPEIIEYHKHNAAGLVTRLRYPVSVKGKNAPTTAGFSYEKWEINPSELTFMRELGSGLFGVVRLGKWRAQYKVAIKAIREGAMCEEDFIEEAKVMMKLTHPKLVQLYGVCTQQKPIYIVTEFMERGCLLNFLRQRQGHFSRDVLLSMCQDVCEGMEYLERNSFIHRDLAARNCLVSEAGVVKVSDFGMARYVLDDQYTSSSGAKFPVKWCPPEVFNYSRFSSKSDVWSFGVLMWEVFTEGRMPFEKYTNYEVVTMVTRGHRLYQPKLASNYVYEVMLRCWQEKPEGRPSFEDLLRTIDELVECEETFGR
Description: as §1, §2
As part of the data evaluation the low control of each kinase was subtracted from the high control value as well as from their corresponding “compound values”.

MST1 = biological target: T3, MST1 (Homo sapiens, UniProt Q13043); assay: PanQinase kinase panel: MST1; conditions: read-out: INHIBITORY EFFECT @ 1 uM: MST1
T3 construct: purchased Reaction Biology Europe GmbH
T3 sequence (Q13043 1-487): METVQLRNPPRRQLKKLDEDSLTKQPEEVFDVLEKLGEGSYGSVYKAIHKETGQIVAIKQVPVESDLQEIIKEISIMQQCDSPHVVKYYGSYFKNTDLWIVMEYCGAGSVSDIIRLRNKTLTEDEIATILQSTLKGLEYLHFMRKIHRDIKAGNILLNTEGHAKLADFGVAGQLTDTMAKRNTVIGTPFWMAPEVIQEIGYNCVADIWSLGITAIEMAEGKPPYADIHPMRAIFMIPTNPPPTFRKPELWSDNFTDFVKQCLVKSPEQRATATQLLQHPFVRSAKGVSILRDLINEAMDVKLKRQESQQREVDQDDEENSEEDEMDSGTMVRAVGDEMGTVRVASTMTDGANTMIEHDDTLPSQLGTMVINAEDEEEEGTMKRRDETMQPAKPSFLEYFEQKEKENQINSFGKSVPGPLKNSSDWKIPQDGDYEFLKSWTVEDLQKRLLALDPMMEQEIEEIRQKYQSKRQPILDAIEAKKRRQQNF
Description: as §1, §2, §3

MINK1 = biological target: T4, MINK1 (Homo sapiens, UniProt Q8N4C8); assay: PanQinase kinase panel: MINK1; conditions: read-out: INHIBITORY EFFECT @ 1 uM: MINK1
T4 construct: purchased Reaction Biology Europe GmbH
Description: as §1, §2, §3

CDK13/CycK = biological target: T5, CDK13/CycK (Homo sapiens, UniProt Q14004); assay: PanQinase kinase panel: CDK13/CycK
T5 construct: purchased Reaction Biology Europe GmbH
Description: Screening procedures were performed in accordance with the company's on-line protocol [accessed on-line Mar. 25, 2022 at reaction biology.com/assay-protocol-panqinase]. Inhibitory activity of 50% or greater at concentrations of 1 μM are highlighted for all five compounds tested.
as §2, §3

[1] = at 1 μM, read-out: inhibition of DDR2
[2] = read-out: INHIBITORY EFFECT @ 1 uM: DDR2
[3] = read-out: INHIBITORY EFFECT @ 1 uM: CDK13/CycK

T5 sequence (Q14004 whole entry): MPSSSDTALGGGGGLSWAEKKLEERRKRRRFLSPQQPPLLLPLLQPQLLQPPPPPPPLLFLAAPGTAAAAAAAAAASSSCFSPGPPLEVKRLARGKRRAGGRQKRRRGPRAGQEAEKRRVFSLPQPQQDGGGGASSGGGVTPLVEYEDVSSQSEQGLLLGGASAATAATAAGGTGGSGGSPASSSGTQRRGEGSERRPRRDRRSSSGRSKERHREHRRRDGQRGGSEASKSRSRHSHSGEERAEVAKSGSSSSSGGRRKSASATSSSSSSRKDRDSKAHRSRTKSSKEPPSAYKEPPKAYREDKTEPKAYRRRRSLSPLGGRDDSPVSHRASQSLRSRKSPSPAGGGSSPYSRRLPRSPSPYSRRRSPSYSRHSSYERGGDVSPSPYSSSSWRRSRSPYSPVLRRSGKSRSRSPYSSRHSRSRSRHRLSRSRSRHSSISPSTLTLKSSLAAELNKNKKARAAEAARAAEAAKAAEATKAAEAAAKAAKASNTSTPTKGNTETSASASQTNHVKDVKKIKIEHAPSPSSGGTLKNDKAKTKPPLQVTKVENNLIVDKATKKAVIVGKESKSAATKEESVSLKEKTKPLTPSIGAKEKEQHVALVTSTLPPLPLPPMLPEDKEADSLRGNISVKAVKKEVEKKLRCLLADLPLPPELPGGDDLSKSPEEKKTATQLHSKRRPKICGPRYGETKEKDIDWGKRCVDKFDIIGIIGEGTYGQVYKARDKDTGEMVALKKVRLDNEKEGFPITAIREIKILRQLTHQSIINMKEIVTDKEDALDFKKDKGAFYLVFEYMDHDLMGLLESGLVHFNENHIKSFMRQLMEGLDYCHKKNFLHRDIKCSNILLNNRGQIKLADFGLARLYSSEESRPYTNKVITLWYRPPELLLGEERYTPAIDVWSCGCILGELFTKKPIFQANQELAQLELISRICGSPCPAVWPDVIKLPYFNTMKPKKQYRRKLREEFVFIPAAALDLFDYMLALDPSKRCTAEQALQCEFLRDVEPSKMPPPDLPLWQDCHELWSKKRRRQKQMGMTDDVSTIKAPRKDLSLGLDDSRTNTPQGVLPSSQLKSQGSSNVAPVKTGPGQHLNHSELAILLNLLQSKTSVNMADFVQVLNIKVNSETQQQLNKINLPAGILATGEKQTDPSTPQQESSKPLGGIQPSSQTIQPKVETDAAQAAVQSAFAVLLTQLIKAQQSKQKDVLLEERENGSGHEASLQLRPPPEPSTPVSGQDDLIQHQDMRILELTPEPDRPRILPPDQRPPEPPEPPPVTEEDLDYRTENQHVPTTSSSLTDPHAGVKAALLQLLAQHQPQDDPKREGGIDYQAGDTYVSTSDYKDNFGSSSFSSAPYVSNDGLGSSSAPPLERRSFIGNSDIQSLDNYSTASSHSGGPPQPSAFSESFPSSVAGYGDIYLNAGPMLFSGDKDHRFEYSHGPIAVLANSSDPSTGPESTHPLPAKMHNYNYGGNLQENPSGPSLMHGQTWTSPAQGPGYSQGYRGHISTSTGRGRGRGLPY
T5 sequence (O75909 whole entry partner): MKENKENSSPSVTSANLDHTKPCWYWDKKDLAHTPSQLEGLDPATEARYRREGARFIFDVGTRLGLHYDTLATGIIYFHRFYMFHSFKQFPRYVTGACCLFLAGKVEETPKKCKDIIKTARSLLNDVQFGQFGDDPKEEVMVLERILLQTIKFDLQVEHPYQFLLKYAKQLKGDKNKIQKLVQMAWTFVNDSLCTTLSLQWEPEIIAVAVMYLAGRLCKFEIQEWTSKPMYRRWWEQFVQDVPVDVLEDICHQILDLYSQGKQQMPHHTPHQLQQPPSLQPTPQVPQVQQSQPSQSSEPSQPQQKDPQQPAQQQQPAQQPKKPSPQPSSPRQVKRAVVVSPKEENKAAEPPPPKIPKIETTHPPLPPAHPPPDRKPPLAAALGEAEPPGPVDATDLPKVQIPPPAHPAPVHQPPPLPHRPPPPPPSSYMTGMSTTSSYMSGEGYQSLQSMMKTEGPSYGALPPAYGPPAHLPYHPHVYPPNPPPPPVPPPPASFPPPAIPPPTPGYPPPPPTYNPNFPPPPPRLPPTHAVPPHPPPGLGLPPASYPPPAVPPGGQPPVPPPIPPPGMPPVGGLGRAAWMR
T4 sequence (Q8N4C8 whole entry): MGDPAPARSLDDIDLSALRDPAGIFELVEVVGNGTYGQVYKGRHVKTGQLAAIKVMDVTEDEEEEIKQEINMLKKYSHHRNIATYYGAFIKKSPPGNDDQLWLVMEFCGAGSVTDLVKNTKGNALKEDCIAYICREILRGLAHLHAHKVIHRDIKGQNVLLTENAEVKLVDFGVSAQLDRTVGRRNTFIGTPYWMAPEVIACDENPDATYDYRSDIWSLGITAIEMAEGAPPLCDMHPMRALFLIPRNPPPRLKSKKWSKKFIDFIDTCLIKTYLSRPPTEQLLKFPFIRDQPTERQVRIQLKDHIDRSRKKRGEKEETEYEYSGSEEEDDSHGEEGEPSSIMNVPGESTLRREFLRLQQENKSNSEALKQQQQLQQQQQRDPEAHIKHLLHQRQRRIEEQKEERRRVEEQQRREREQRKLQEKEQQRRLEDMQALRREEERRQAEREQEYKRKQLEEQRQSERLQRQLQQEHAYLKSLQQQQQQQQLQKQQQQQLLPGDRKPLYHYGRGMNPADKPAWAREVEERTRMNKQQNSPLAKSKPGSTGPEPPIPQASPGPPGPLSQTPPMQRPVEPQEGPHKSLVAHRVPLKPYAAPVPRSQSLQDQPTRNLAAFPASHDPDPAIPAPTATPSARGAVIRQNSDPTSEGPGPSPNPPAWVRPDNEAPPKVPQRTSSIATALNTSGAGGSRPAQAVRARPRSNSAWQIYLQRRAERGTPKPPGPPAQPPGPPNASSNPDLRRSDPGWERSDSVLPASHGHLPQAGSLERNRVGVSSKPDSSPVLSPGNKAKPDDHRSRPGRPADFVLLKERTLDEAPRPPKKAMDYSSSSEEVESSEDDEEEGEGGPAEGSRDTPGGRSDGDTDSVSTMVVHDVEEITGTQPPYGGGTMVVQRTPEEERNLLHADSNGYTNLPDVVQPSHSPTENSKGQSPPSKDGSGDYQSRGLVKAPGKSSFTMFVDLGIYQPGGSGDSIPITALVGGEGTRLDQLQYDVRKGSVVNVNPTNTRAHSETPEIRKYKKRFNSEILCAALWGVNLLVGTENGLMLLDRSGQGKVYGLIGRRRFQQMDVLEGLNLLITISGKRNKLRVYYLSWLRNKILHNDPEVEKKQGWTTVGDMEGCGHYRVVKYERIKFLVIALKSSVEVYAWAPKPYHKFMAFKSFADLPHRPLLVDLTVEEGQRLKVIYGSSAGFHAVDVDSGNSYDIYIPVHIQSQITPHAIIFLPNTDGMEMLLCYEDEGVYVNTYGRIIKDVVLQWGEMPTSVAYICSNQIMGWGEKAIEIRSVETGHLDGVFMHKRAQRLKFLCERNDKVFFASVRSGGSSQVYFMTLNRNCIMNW

**Q.** Which inhibition at 1 µM (DDR2; [1]) does the source give for `O=C(c1ccc(Oc2ccccc2)cc1Cl)c1c[nH]c2ncnc(N[C@@H]3CC[C@@H](CO)OC3)c12` [ARQ-531, (2-chloro-4-phenoxyphenyl) (4-(((3R,6S)-6-(hydroxymethyl)tetrahydro-2H-pyran-3-yl)amino)-7H-pyrrolo[2,3-d]pyrimidin-5-yl) methanone] here?
**A.** The inhibition at 1 µM was no less than 50%.

**Q.** What about the inhibition at 1 µM (DDR2; [2]) of the same compound?
**A.** The inhibition at 1 µM was 50 to 69%.

**Q.** What about the inhibition at 1 µM (TEC) of the same compound?
**A.** The inhibition at 1 µM was 90 to 100%.

**Q.** And the inhibition at 1 µM (MST1)?
**A.** The inhibition at 1 µM was 70 to 89%.

**Q.** What about the inhibition at 1 µM (MINK1) of the same compound?
**A.** The inhibition at 1 µM was 50 to 69%.

**Q.** Which inhibition at 1 µM (CDK13/CycK; at 1 μM, read-out: inhibition of CDK13/CycK) does the source give for `Cc1cccnc1[C@H]1CCC[C@@H](c2ncccc2C)N1CCN1CCN(C(=O)c2ccc(-c3cc4c(-c5cccc(NC(=O)c6ccccc6)c5C)ncnc4[nH]3)cc2)CC1` [Compound I-10, N-(3-(6-(4-(4-(2-((2R,6S)-2,6-bis(3-methylpyridin-2-yl)piperidin-1-yl)ethyl)piperazine-1-carbonyl)phenyl)-7H-pyrrolo[2,3-d]pyrimidin-4-yl)-2-methylphenyl)benzamide] here?
**A.** The inhibition at 1 µM was 50 to 89%.

**Q.** And the inhibition at 1 µM (CDK13/CycK; [3])?
**A.** The inhibition at 1 µM was 50 to 69%.

**Q.** What about the inhibition at 1 µM (DDR2; [1]) of the same compound?
**A.** Its inhibition at 1 µM is 50 to 89%.

**Q.** What about the inhibition at 1 µM (DDR2; [2]) of the same compound?
**A.** Its inhibition at 1 µM is 70 to 89%.

**Q.** What about the inhibition at 1 µM (TEC) of the same compound?
**A.** Its inhibition at 1 µM is 70 to 89%.

**Q.** What about the inhibition at 1 µM (MST1) of the same compound?
**A.** Its inhibition at 1 µM is less than 50%.

**Q.** What about the inhibition at 1 µM (MINK1) of the same compound?
**A.** Its inhibition at 1 µM is less than 50%.

**Q.** With `COc1ccc(F)cc1C(=O)NCc1ccc(-c2nn([C@@H](C)C(F)(F)F)c(N)c2C(N)=O)cc1` [LOXO-305, pirtobrutinib] as the compound, how does the inhibition at 1 µM (CDK13/CycK; [3]) read?
**A.** The inhibition at 1 µM was less than 50%.

**Q.** What about the inhibition at 1 µM (DDR2; [2]) of the same compound?
**A.** The inhibition at 1 µM was less than 50%.

**Q.** What about the inhibition at 1 µM (TEC) of the same compound?
**A.** The inhibition at 1 µM was 90 to 100%.

**Q.** And the inhibition at 1 µM (MST1)?
**A.** The inhibition at 1 µM was less than 50%.

**Q.** And the inhibition at 1 µM (MINK1)?
**A.** Its inhibition at 1 µM is less than 50%.

**Q.** How did the inhibition at 1 µM (CDK13/CycK; [3]) turn out when `C=CC(=O)N1CCC([C@@H]2CCNc3c(C(N)=O)c(-c4ccc(Oc5ccccc5)cc4)nn32)CC1` [Zanubrutinib, (7S)-2-(4-phenoxyphenyl)-7-(1-prop-2-enoylpiperidin-4-yl)-4,5,6,7-tetrahydropyrazolo[1,5-a]pyrimidine-3-carboxamide] was run?
**A.** The inhibition at 1 µM was less than 50%.

**Q.** What about the inhibition at 1 µM (DDR2; [2]) of the same compound?
**A.** The inhibition at 1 µM was less than 50%.

**Q.** And the “INHIBITORY EFFECT @ 1 uM: TEC” value (TEC; 1 uM)?
**A.** Its value is “++++ (90%-100% Inhibition at 1 uM)”.

**Q.** And the inhibition at 1 µM (MST1)?
**A.** The inhibition at 1 µM was less than 50%.

**Q.** And the inhibition at 1 µM (MINK1)?
**A.** Its inhibition at 1 µM is less than 50%.
